Results on one compound are retold here after patent US20090280068A1, “POLYMORPH OF 8-HYDROXY-5-[(1R)-1-HYDROXY-2-[[(1R)-2-(4-METHOXYPHENYL)-1-METHYLETHYL]AMINO]ETHYL]-2(1H)-QUINOLINONE MONOHYDROCHLORIDE” (Chiesi Farmaceutici S.p.A., priority 2008, published 2009).

This data set can be described thus: Stability studies: storage under different relative humidity conditions, checked by XRPD pattern. The format is physicochemical. The note with it: solid stored at 25° C., 1 week each at 40%, 60%, 80%, 30%, 0% and 40% RH. As for the experimental part:
The XRPD analyses were carried out on a PANanalytical X'pert Pro X-ray powder diffractometer using Cu Kα radiation. The instrument was equipped with a X'Celerator detector. A theta-two theta continuous scan from 2.5 degrees 2 theta to 40 degrees 2 theta was used. Each sample was prepared for analysis by placing it in a quartz sample holder. The XPRD patterns are reported in terms of degrees 2 theta (°2θ, accuracy ±0.1°), diffraction peak intensity (height, [cts]), full width at half maximum (FWHM, [°2θ]), interatomic spacing in angstroms (d-spacing, [Å]), and relative intensities (%). The relative intensity is recorded as the ratio of the peak intensity to that of the most intense peak.
In order to check its thermodynamic stability, CHF 4226 crystal form D was stored at room temperature under different relative humidity (RH) conditions: • 40% RH. and 25° C. for 1 week • 60% RH. and 25° C. for 1 week • 80% RH and 25° C. for 1 week • 60% RH and 25° C. for 1 week • 40% RH and 25° C. for 1 week • 30% RH and 25° C. for 1 week • 0% RH. and 25° C. for 1 week • 40% RH and 25° C. for 1 week The thermodynamic stability of all the samples was checked by recording their XPRD pattern.

For the compound `COc1ccc(C[C@@H](C)NC[C@H](O)c2ccc(O)c3[nH]c(=O)ccc23)cc1.Cl` [CHF 4226 crystal form D, 8-hydroxy-5-[(1R)-1-hydroxy-2-[[(1R)-2-(4-methoxyphenyl)-1-methylethyl]amino]ethyl]-2(1H)-quinolinone monohydrochloride], the “thermodynamic stability (XPRD pattern after storage)” value is given as “stable features under all stability screening conditions”.
